Where two headings read alike, the source gives them in different places.
Assays:
[1] = test system: CYP3A4; test: Cytochrome P450 induction screening assay, mRNA induction in human cryopreserved hepatocytes; assay type: in vitro ADME; conditions: 24 hours exposure
Text: Induction of cytochrome P450 enzymes is associated with an increased prevalence of clinical drug-drug interactions. The clinical consequences of induction may be therapeutic failure caused by a decreased systemic exposure of the drug itself or a co-administered therapy, or toxicity as a result of increased bioactivation. Cytochrome P450 (CYP450) induction assay has been used to understand the potential drug-drug interaction liabilities in drug discovery stage. Human cryopreserved hepatocytes (Life Technologies, Carlsbad, USA) were thawed and cultured in collagen I coated 96-well plates with a density of 52,000 cells/well. After attachment, hepatocyte maintenance medium (HMM; Lonza, Switzerland) was changed after cells were pre-cultured overnight. […] Medium change was then performed and cells were exposed for 24 hours to test compounds, positive inducer compounds, or vehicle (0.1% DMSO), respectively. At the end of the compound exposure period, medium was removed and cells lysed using 100 μL/well MagNA Pure LC RNA isolation tissue lysis buffer (Roche Diagnostics AG, Rotkreuz, Switzerland). […] mRNA isolation was performed using the MagNA Pure 96 system (Roche Diagnostics AG, Rotkreuz, Switzerland) and the respective cellular RNA large volume kit (Roche Diagnostics AG, Rotkreuz, Switzerland) from thawed samples diluted 1:1 with PBS. […] The resulting cDNA was diluted with 40 μL of H2O before using for qRT-PCR. qRT-PCR was performed by using the forward and the reverse primer, the corresponding Universal Probe Library (all from Microsynth, Balgach, Switzerland) and the Taqman Fast advanced master mix (Applied Biosystems), on an ABI 7900 machine (Applied Biosystems). qRT-PCR Ct-values for the respective P450s were put into relation to the Ct-value of RN18S1 (microsynth, Balgach, Switzerland) of the same sample. Doing so, a respective Δct-value was calculated. Using the average of all Δct-values for the vehicle control samples, a ΔΔct-value was calculated for each sample (ΔΔct-value(sample)=Δct-value(sample)−average of Δct-value of all vehicle controls). […] The individual fold induction values were then averaged per treatment condition (usually n=3 biological replicates).

[2] = molecular target: human TLR8 (Homo sapiens (Human), UniProt Q9NR97); test: HEK-Blue-hTLR8 cells assay and selectivity index; assay type: cell-based; conditions: EC50(TLR8) value/EC50(TLR7) value
human TLR8, sequence (Q9NR97 27-1041): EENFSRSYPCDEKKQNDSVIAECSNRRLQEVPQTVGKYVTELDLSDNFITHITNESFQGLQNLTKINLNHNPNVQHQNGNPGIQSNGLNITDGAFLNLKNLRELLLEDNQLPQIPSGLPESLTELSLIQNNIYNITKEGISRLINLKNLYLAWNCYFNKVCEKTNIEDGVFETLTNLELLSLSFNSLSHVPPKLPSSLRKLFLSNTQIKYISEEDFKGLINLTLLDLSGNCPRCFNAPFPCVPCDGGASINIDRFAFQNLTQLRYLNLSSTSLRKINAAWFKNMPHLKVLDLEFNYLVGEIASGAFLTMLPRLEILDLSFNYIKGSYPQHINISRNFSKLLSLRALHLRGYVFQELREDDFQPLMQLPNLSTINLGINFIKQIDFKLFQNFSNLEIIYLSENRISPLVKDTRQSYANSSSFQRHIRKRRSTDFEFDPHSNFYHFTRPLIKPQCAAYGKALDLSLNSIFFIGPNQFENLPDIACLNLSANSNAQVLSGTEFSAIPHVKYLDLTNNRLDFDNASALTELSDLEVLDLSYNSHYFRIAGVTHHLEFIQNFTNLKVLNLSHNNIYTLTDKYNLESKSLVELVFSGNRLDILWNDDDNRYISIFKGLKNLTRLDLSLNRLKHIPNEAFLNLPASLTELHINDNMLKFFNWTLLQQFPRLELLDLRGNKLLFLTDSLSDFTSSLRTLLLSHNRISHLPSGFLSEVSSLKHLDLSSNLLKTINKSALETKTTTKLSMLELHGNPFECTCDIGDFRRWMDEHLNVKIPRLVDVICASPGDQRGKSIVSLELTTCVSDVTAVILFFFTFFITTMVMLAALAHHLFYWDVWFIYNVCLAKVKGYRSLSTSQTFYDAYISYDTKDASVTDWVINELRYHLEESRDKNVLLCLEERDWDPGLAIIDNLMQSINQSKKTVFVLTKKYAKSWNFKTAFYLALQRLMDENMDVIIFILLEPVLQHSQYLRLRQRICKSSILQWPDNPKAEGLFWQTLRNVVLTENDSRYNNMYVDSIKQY

[3] = Single dose PK after 1 mg/kg intravenous dosing to rat; assay type: in vivo, Male Wister-Han Rats; conditions: IV 1 mpk
Procedure: The single dose PK in Male Wister-Han Rats was performed to assess pharmacokinetic properties of tested compounds. Two groups of animals were dosed via bolus intravenous (IV) of the respective compound. Blood samples (approximately 20 μL) were collected via Jugular vein or an alternate site at 5 min, 15 min, 30 min, 1 hr, 2 hr, 4 hr, 7 hr and 24 hr post-dose for IV group. Blood samples were placed into tubes containing EDTA-K2 anticoagulant and centrifuged at 5000 rpm for 6 min at 4° C. to separate plasma from the samples. Following centrifugation, the resulting plasma was transferred to clean tubes for bioanalysis on LC/MS/MS. The pharmacokinetic parameters were calculated using non-compartmental module of WinNonlin® Professional 6.2. […] Therefore, compounds of present invention potentially could lead to less dose frequency and lower dose in clinical application.

[4] = 7 hrs (row printed 8**), read-out: Mean plasma concentration
[5] = male, Wistar-Han, plasma, iv, 1 mg/kg, 0.083 h
[6] = male, Wistar-Han, plasma, iv, 1 mg/kg, 0.25 h
[7] = male, Wistar-Han, plasma, iv, 1 mg/kg, 0.5 h
[8] = male, Wistar-Han, plasma, iv, 1 mg/kg, 1 h
[9] = male, Wistar-Han, plasma, iv, 1 mg/kg, 2 h
[10] = male, Wistar-Han, plasma, iv, 1 mg/kg, 4 h

CCCS(=N)(=O)c1nc(N)c2[nH]c(=O)n(Cc3ccccc3)c2n1 (single isomer, unassigned) [Example 4-A, 6-Amino-9-benzyl-2-(propylsulfonimidoyl)-7H-purin-8-one]
Relative induction of Positive control (10 μM Rifampicin) (%) [1]: −0.63%

CCS(=N)(=O)c1nc(N)c2[nH]c(=O)n(Cc3ccc(Cl)cc3)c2n1 (single isomer, unassigned) [Example 70-A, 6-Amino-9-[(4-chlorophenyl)methyl]-2-(ethylsulfonimidoyl)-7H-purin-8-one]
Selective index [2]: >18518
Relative induction of Positive control (10 μM Rifampicin) (%) [1]: 0.42%
CO [3]: 3052 nM
concentration at 4 h [3, 4]: 6.28 nM
concentration at 0.083 h [3, 5]: 3050 nM
concentration at 0.25 h [3, 6]: 1340 nM
concentration at 0.5 h [3, 7]: 718 nM
concentration at 1 h [3, 8]: 354 nM
concentration at 2 h [3, 9]: 110 nM
concentration at 4 h [3, 10]: 20.5 nM

CCCS(=N)(=O)c1nc(N)c2[nH]c(=O)n(Cc3ccccc3)c2n1 (single isomer, unassigned) [Example 4-B, 6-Amino-9-benzyl-2-(propylsulfonimidoyl)-7H-purin-8-one]
Relative induction of Positive control (10 μM Rifampicin) (%) [1]: −0.90%

CCS(=N)(=O)c1nc(N)c2[nH]c(=O)n(Cc3ccc(C)cc3)c2n1 (single isomer, unassigned) [Example 71-A, 6-Amino-2-(ethylsulfonimidoyl)-9-(p-tolylmethyl)-7H-purin-8-one]
Relative induction of Positive control (10 μM Rifampicin) (%) [1]: −0.10%
CO [3]: 1848 nM
concentration at 0.083 h [3, 5]: 1850 nM
concentration at 0.25 h [3, 6]: 1000 nM
concentration at 0.5 h [3, 7]: 537 nM
concentration at 1 h [3, 8]: 292 nM
concentration at 2 h [3, 9]: 115 nM
concentration at 4 h [3, 10]: 18.2 nM

CCS(=N)(=O)c1nc(N)c2[nH]c(=O)n(Cc3ccc(Cl)cc3)c2n1 (single isomer, unassigned) [Example 70-B, 6-Amino-9-[(4-chlorophenyl)methyl]-2-(ethylsulfonimidoyl)-7H-purin-8-one]
Relative induction of Positive control (10 μM Rifampicin) (%) [1]: −0.42%
AUC0-inf [3]: 1.894 µM·h
CL [3]: 48.7 mL/min/kg
CO [3]: 2782 nM
concentration at 4 h ([3]; 0.083 h, read-out: Mean plasma concentration): 2782 nM
concentration at 4 h ([3]; 0.25 h, read-out: Mean plasma concentration): 1434 nM
concentration at 4 h ([3]; 0.5 h, read-out: Mean plasma concentration): 862 nM
concentration at 4 h ([3]; 1 h, read-out: Mean plasma concentration): 461 nM
concentration at 4 h ([3]; 2 h, read-out: Mean plasma concentration): 173 nM
concentration at 4 h ([3]; 4 h, read-out: Mean plasma concentration): 29.1 nM
concentration at 4 h [3, 4]: 16.7 nM
